This passage reports TGI results from PubChem BioAssay (NCI).

Holding throughout (assay): NCI-60 cell line screen, 48 h
Test [1] relates to SW-620 colon.
The test system of test [2] is HCT-15 colon.
In test [3] the test system is HT29 colon.
Test [4] deals with LOX IMVI melanoma.
Test [5] has as its system CCRF-CEM leukemia.
Test [6] concerns HL-60(TB) leukemia.
The test system of test [7] is 786-0 renal.
Test [8] concerns SK-MEL-28 melanoma.
For test [9], the system named is NCI-H226 lung.
Test [10] concerns OVCAR-5 ovarian.
The test system of test [11] is U251 CNS.
The test system of test [12] is NCI-H522 lung.
In test [13] the test system is SR leukemia.
Test [14] relates to MDA-MB-435.
The test system of test [15] is UACC-62 melanoma.
Test [16] relates to OVCAR-3 ovarian.
Test [17] deals with SNB-75 CNS.
For test [18], the system named is SK-MEL-2 melanoma.
For test [19], the system named is SN12C renal.
For test [20], the system named is HCC-2998 colon.

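Compound exposure: 48 hours, 5 concentrations, 96-well plates. TGI marks complete inhibition of growth.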

In the case of `CC(=O)N/N=C1/CC[C@@]2(C)C(=CC[C@H]3C4CCC(C(C)CCCC(C)C)[C@@]4(C)CCC32)C1(C)C` (stereo not given in full), the TGI in test [1], in test [2], in test [3], in test [4], in test [5] and in test [6] was above 100 µM in each case. Besides, the TGI in test [7], in test [8], in [9], in test [10], in [11] and in test [12] was above 100 µM each time. Moreover, the TGI in test [13], in test [14], in [15], in [16], in test [17] and in test [18] was above 100 µM throughout. Moreover, the TGI in [19] is above 100 µM.

With `CC(=O)OC1CC[C@@]2(C)C(C1)CC(OC(C)=O)[C@@H]1C2CC(OC(C)=O)[C@]2(C)C(C(C)CC=C(c3ccc(Cl)cc3)c3ccc(Cl)cc3)CCC12` (stereo not given in full), the TGI in test [1] was above 100 µM; in test [20], above 100 µM; in [2], above 100 µM; in test [3], above 100 µM; in test [5] it was 95.2 µM; in test [6] it was 27.9 µM. The TGI in test [7], in [8], in test [10], in test [11], in test [12] and in [13] was above 100 µM throughout. Also, the TGI in test [14], in test [17] and in [19] was above 100 µM throughout.

Take `CN(NC(=O)/C(=C\c1ccco1)NC(=O)c1ccccc1)c1cn[nH]c(=O)c1Cl`: the TGI in test [1] is above 100 µM; in test [2], above 100 µM; in [3], above 100 µM; in [4], 58.2 µM; in test [5], 62.4 µM; in test [7] it was above 100 µM. The TGI in test [8] is above 100 µM; in [9], above 100 µM; in [10] it was above 100 µM; in test [11], above 100 µM; in test [12], 89.3 µM; in test [13], above 100 µM. Besides, the TGI in test [14] is above 100 µM; in test [15], above 100 µM; in test [16] it was above 100 µM; in [17], 84.2 µM; in [18], above 100 µM; in test [19], above 100 µM.

As for `CC1(C)N=C(C(=O)c2ccccc2)N(O)C1(O)c1ccccc1` (stereo not given), the TGI in test [1], in test [20], in [2], in test [3], in test [4] and in [5] was above 100 µM each time. Further, the TGI in test [6], in test [7], in [8], in test [9], in test [10] and in test [11] was above 100 µM each time. The TGI in test [13], in test [14], in [15], in test [16], in test [17] and in test [18] was above 100 µM in each case. The compound also showed a TGI in test [19] above 100 µM.

Turning to `O=C1/C(=C/c2ccccc2)CCc2ccccc21`, the TGI in [1] amounted to 34.2 µM; in [20], 38.6 µM; in test [2] it was 86.9 µM; in [3], 32.7 µM; in test [4], 33 µM; in test [5], 18.3 µM. Besides, the TGI in [6] was found to be 37.8 µM; in [7] it was 34.7 µM; in [8], 38.3 µM; in test [9], 35 µM; in test [10] it was 33.4 µM; in [11], 30.4 µM. Moreover, the TGI in [13] came to 38.9 µM; in test [14], 28.2 µM; in [15], 36.7 µM; in test [16], 30.2 µM; in [17] it was 31.9 µM; in test [19], 56.1 µM.

`COc1ccc(NS(=O)c2ccccc2OC)cc1` (stereo not given): the TGI in test [1], in [2], in test [3], in test [4], in test [5] and in test [6] was above 100 µM in each case. Besides, the TGI in [7] is above 100 µM; in [8] it was above 100 µM; in test [9], 41.8 µM; in [10], above 100 µM; in test [11], 67.2 µM; in test [12], 52.5 µM. Moreover, the TGI in test [13] was above 100 µM; in test [14] it was above 100 µM; in test [15] it was 20.5 µM; in test [16], above 100 µM; in [18] it was 46.6 µM; in test [19], above 100 µM.

As for `COC(=O)c1nc(-c2nc(CCNC(=O)OC(C)(C)C)sc2Cl)sc1Cl`, the TGI in test [1], in [20], in test [2], in test [3], in test [5] and in test [6] was above 100 µM each time. In addition, the TGI in test [7], in test [8], in [9], in test [10], in test [11] and in test [13] was above 100 µM each time. The TGI in [14], in test [15], in [16] and in test [17] was above 100 µM throughout.

As for `S=C1N=C(Cl)/C(=C\c2ccco2)N1`, the TGI in [1], in test [2], in test [3], in test [4], in test [5] and in test [6] was above 100 µM throughout. For the same compound, the TGI in [7], in test [8], in [9], in test [10], in [11] and in [12] was above 100 µM throughout. The TGI in [13], in test [14], in test [15], in [16], in [17] and in test [18] was above 100 µM in each case. In test [19], this compound had a TGI above 100 µM.

Consider `CC(=O)c1sc(Nc2ccc(Cl)c(Cl)c2)nc1C`, for which the TGI in test [1], in [20], in test [2], in [3], in test [4] and in [7] was above 100 µM throughout. The TGI in test [8], in test [9], in test [10], in test [11], in test [13] and in test [14] was above 100 µM throughout. Besides, the TGI in test [15], in test [16], in [17] and in test [19] was above 100 µM each time.

For `C/C(=N\Nc1nc2ccccc2o1)c1cc(C)ncn1`, the TGI was above 100 µM in test [1]; above 48.6 µM in [20]; 35.3 µM in test [2]; 14.8 µM in test [3]; above 100 µM in test [5]; above 100 µM in test [6]. Further, the TGI in [7] is 24.3 µM; in test [8] it was above 100 µM; in [10], 26.8 µM; in test [11], above 100 µM; in test [13], above 100 µM; in test [14], above 100 µM. For the same compound, the TGI in [16] was above 54.7 µM; in [17], 3.27 µM; in [18], 32.7 µM; in test [19] it was above 100 µM.

In the case of `CCCC(=O)Oc1ccc2c(C)cc(=O)oc2c1OC(=O)CCC`, the TGI in test [1], in test [2], in test [3], in test [4], in [5] and in [7] was above 100 µM each time. Besides, the TGI in test [8], in test [9], in [10], in test [11], in [13] and in test [14] was above 100 µM in each case. For the same compound, the TGI in [15], in test [16], in test [17], in test [18] and in [19] was above 100 µM each time.

For the compound `O=C(NCCNCCNC(=O)C(F)(F)F)C(F)(F)F`, the TGI in [1], in test [20], in test [2], in test [3], in test [4] and in test [5] was above 100 µM throughout. The TGI in test [6], in [7], in test [8], in [9], in [10] and in [11] was above 100 µM throughout. Further, the TGI in [13], in test [14], in [15], in test [16], in test [18] and in test [19] was above 100 µM throughout.

`O=C(O)C1(Cc2ccc3c(c2)CCC3)Cc2ccccc2C1=O` (stereo not given): the TGI in test [1], in [20], in [2], in [3], in test [4] and in [5] was above 100 µM throughout. In addition, the TGI in test [6], in test [7], in test [8], in test [9], in [10] and in test [11] was above 100 µM each time. The TGI in test [13], in [14], in [15], in test [16], in [17] and in test [18] was above 100 µM throughout. The TGI in test [19] was above 100 µM.

`C[C@@H]1OC(=O)C[C@H]2CC(=O)N(CCC3CN(S(=O)(=O)C(F)(F)F)c4ccccc43)C[C@@H]21` (stereo not given in full): the TGI in [1], in [20], in test [2], in test [3], in test [5] and in [7] was above 100 µM in each case. The TGI in test [8], in [10], in test [11], in test [12], in test [13] and in test [14] was above 100 µM in each case. Moreover, the TGI in [15], in test [16] and in test [18] was above 100 µM each time.

As to `O=C1CCCCC(=O)Nc2ccccc2N1`, the TGI in test [1], in test [2], in test [3], in test [4], in [5] and in [6] was above 100 µM in each case. Further, the TGI in test [7], in [8], in [9], in test [10], in test [11] and in test [12] was above 100 µM throughout. In addition, the TGI in [13], in test [14], in test [15], in [16], in [18] and in test [19] was above 100 µM in each case.

As to `Cn1c2ccccc2c2nc3ccccc3c(Cl)c21`, the TGI in [1], in test [2], in test [3], in test [4], in test [5] and in test [6] was above 100 µM in each case. Further, the TGI in test [7], in [8], in test [9], in [10], in test [11] and in test [12] was above 100 µM in each case. For the same compound, the TGI in test [13], in test [14], in test [15], in test [16], in test [17] and in test [18] was above 100 µM in each case. Moreover, the TGI in test [19] was above 100 µM.
